Literature values as cited in patent publication US20230150977A1, “PYRIDAZINONE COMPOUNDS FOR THE TREATMENT OF NEUROMUSCULAR DISEASES” (Edgewise Therapeutics, Inc., priority 2020, published 2023).

Tested on: embryos from zebrafish model of DMD
Details: Li and Arner, PLoSONE, 2015; cited from earlier work

In the case of `Cc1ccc(S(=O)(=O)NCc2ccccc2)cc1` [BTS, N-benzyl-p-tolyl-sulfonamide], the “protection of muscles from pathological muscle derangement” value is given as “protect muscles from pathological muscle derangement”.
